Assay results from PMC12736473, “Development and Validation of LC-MS/MS Method for Nintedanib and BIBF 1202 Monitoring in Plasma of Patients with Progressive Pulmonary Fibrosis Associated with Systemic Sclerosis” (Pharmaceutics, 2025).
Read-outs that look alike come from different tables or passages of the source.

Columns and labels:
[1] = NIN and BIBF 1202 plasma concentrations (C0, Cmax) in patients treated with NIN, UPLC-MS/MS; type: in vivo, human; conditions: for Cmax: human, read-out: Mean Concentration Cmax; for Cmax / Mean Concentration C0: patient plasma; for Concentration in the patient sample (chromatogram): single patient sample after administration of 100 mg dose
Method: Whole blood was collected via standard venipuncture from 24 patients diagnosed with CTD-PPF. Patients received treatment with NIN, of whom 8 were administered a dose of 100 mg twice daily and 16 received 150 mg twice daily. Blood samples were obtained prior to the first daily NIN dose (trough concentration, C0) and 2–3 h afterward (maximum concentration, Cmax). Following collection, samples of whole blood with NIN and metabolite were centrifuged, and then plasma was stored at −70 °C. This study was approved by the Local Bioethics Committee of the National Institute of Geriatrics, Rheumatology, and Rehabilitation in Warsaw (KBT-5/3/2024).
To prepare the samples, 200 μL of plasma was spiked with 20 μL of IS (NIN-d3) and vortexed. Protein precipitation was carried out using 500 μL of chilled ACN solution after we previously neutralized the samples with 50 μL of 2 M sodium carbonate (Na2CO3). The samples were subsequently mixed on an orbital shaker (Vibrax, IKA, Staufen, Germany) for 30 s at 1800 and centrifuged for 10 min at 13,000 rpm, 3 °C. Then, 200 μL of the supernatant was transferred into autosampler vials for LC-MS/MS analysis under the conditions described in Section 2.6 and Section 2.7.
The UPLC Acquity I-class Plus system (Milford, MA, USA, Waters), equipped with a quaternary gradient pump, column oven, degasser unit, and autosampler, was used. The autosampler and column were maintained at 10 ± 2 °C and 40 ± 2 °C, respectively. The isocratic elution was carried out using a mobile phase consisting of 0.1% formic acid in water and acetonitrile (35:65, v/v). The mobile phase flowed through a Zorbax SB-C18 column (100 mm × 3.0 mm, 3.5 µm; Santa Clara, CA, USA, Agilent Technologies) at a flow rate of 0.3 mL/min. The system was equipped with an ASSY FRIT pre-column (0.2 µm, 2.1 mm; Milford, MA, USA, Waters). To prevent the carry-over effect, after the analysis, the injection needle was washed with a mixture consisting of acetonitrile, methanol, isopropyl alcohol, water, and formic acid (250:250:250:250:1, v/v/v/v/v).
Mass spectrometric analysis was performed using a XEVO-TQ-XS quadrupole mass spectrometer (Milford, MA, USA, Waters). Multiple Reaction Monitoring (MRM) chromatograms were acquired and processed with MassLynx 4.2 software (Milford, MA, USA, Waters). Ionization was carried out in positive ion mode using electrospray ionization (ESI+). MS parameters of instruments and analyzed compounds are detailed in Table 1.
The LC-MS/MS method developed and fully validated in this study was used to analyze the concentrations (C0 and Cmax) of nintedanib and its metabolite BIBF 1202 in human plasma. Twenty-four patients were treated with two doses of NIN (8 patients: 100 or 16 patients: 150 mg twice daily). In total, 48 samples were collected from patients at two time points: a morning dose at the trough level, and a dose 2–3 h (Cmax) after the morning dose administration. The concentrations of NIN and its metabolite were determined in the plasma of 24 patients (Male/Female 8:16, mean age 56.2, age range 35–75) with progressive pulmonary fibrosis associated with systemic sclerosis. The obtained results are presented in Table 7 and illustrated graphically (Figure 4).

[2] = Short-term stability in human plasma at ambient temperature (≤30 °C); type: in vitro ADME; conditions: for Short-term stability, Stability [%]: human plasma, ≤30 °C, vs reference samples
Method: (§1) The stability of NIN and BIBF 1202 in human plasma, including in the short term, autosampler, and freeze–thaw, was evaluated for the QC samples analyzed at two concentrations, 5.00 ng/mL (LQC1) and 170.00 ng/mL (HQC), studied in six replicates per test. The short-term stability of NIN and BIBF 1202 was assessed for the samples that were stored at ambient temperature (≤30 °C) for at least two hours, which were analyzed and compared with freshly prepared samples. Autosampler stability was determined by storing samples in the autosampler at 10 ± 2 °C for at least […]. Freeze–thaw stability was examined over three cycles, in which samples were frozen at ≤−14 °C for 12 h and subsequently thawed at ambient temperature (≤30 °C).
(§2) Autosampler stability was examined by storing samples at 10 ± 2 °C for up to 48 h. No impact of three freeze–thaw cycles (freezing at ≤−14 °C and thawing at ambient temperature) was observed on the stability of NIN or BIBF 1202.

[3] = Autosampler stability at 10 ± 2 °C; type: physicochemical, human; conditions: after 45 h
Method: as §1, §2

[4] = Freeze–thaw stability in human plasma, three cycles; type: in vitro ADME; conditions: for Freeze–thaw stability, Stability [%]: human plasma, 3 cycles (≤−14 °C / ambient); for Impact of freeze–thaw cycles on stability: three cycles, freezing at ≤−14 °C, thawing at ambient temperature
Method: as §1, §2

[5] = parameters: method as in PK study presented in the literature; conditions: ref PK study presented in the literature; cited from earlier work
[6] = parameters: method as in PMID 26072676; conditions: cited from earlier work
[7] = NIN 100 mg twice daily, n = 8, 2–3 h after morning dose
[8] = NIN 150 mg twice daily, n = 16, 2–3 h after morning dose
[9] = NIN 100 mg twice daily, n = 8, trough (before first daily dose)
[10] = NIN 150 mg twice daily, n = 16, trough (before first daily dose)
[11] = 2 h at ambient temperature (≤30 °C)

Cmax [1, 7] [ng/mL]	Cmax [1, 8] [ng/mL]	Mean Concentration C0 [1, 9] [ng/mL]	Mean Concentration C0 [1, 10] [ng/mL]	Concentration in the patient sample (chromatogram) [1] [ng/mL]	Short-term stability, Stability [%] ([2]; 2 h, HQC (170.00 ng/mL))	Short-term stability, Stability [%] ([2]; 2 h, LQC1 (5.00 ng/mL))	Effect of storing plasma samples on concentration [2, 11]	Effect of storing plasma samples on concentration ([2]; 4 h at ≤30 °C)	Autosampler stability, Stability [%] ([3]; HQC (170.00 ng/mL))	Autosampler stability, Stability [%] ([3]; LQC1 (5.00 ng/mL))	Freeze–thaw stability, Stability [%] ([4]; HQC (170.00 ng/mL))	Freeze–thaw stability, Stability [%] ([4]; LQC1 (5.00 ng/mL))	Impact of freeze–thaw cycles on stability [4]	Short-term stability, Stability [%] ([2]; 4 h, HQC (170.00 ng/mL))	Short-term stability, Stability [%] ([2]; 4 h, LQC1 (5.00 ng/mL))	SMILES	Time of peak plasma concentrations after administration [5] [h]	Rate of diarrhea ([6]; patients who continued NIN) [%]	Rate of diarrhea ([6]; patients who initiated NIN) [%]
26.6	57.8	9.81	35.20	28.0	102.3	100.8	did not cause changes	reduction in the BIBF signal	98.9	98.5	105.9	94.7	No impact	–	–	CN1CCN(CC(=O)N(C)c2ccc(N/C(=C3\C(=O)Nc4cc(C(=O)O)ccc43)c3ccccc3)cc2)CC1 [BIBF 1202]	–	–	–
16.5	28.7	7.33	18.60	12.3	–	–	did not cause changes	no effect	100.6	96.4	99.7	94.6	No impact	101.3	100.7	COC(=O)c1ccc2c(c1)NC(=O)/C2=C(\Nc1ccc(N(C)C(=O)CN2CCN(C)CC2)cc1)c1ccccc1 [NIN, Nintedanib]	2 to 3	60.1	71
